Measured values taken from patent US6914160B1, “Oxytocin inhibitors” (Pfizer Inc, priority 2002, dated 2005).

Target: T1, Oxytocin Receptor (Homo sapiens, UniProt P30559)
T1 construct: expressed in transfected cells; host or cells: CHO cells (membrane preparation)
T1 sequence (P30559 1-389): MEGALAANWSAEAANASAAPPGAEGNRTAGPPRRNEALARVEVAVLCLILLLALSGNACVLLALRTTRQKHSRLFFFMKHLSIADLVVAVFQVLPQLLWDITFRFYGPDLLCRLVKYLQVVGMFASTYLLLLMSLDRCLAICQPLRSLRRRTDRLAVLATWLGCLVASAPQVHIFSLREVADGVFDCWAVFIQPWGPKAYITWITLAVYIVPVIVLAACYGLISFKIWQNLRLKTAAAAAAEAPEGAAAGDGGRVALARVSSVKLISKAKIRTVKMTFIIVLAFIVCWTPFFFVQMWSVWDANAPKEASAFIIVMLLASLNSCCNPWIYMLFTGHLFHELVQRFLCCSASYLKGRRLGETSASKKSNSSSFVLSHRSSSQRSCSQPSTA
Assay: Oxytocin Receptor Ligand Binding IC50 Assay (125I-OVTA SPA, CHO cell membranes)
Protocol: A. Oxytocin Receptor Ligand Binding IC50 Assay
• ii) Compound Dilution (Final concentration of 10 μM in the assay) • a) HTA stock compounds at 4 mM in 100% DMSO • b) Dilute compounds to 200 μM in dH2O. • c) Further dilute compounds to 100 μM in 100 mM Tris-HCl, pH 7.8, 20 mM MgCl2. This gives final concentrations of 2.5% DMSO, 50 mM Tris-HCl, pH 7.8, 10 mM MgCl2. • d) Using the diluted stock, prepare 1:2 dilutions over 10 points in 50 mM Tris-HCl, pH 7.8, 10 mM MgCl2, 2.5% DMSO with the TECAN Genesis. • e) Dispense 10 μl of the compound into a 384 well Optiplate according to the plate layout required for analysis by ECADA leaving space for the standard (arg^8)-vasotocin IC50. […] Protein concentrations are then measured and the membrane suspension is finally frozen in aliquots at a minimum of 5 mg/ml at −80° C. vi) Assay • Membranes are thawed on ice before diluting to 1 mg/ml in assay buffer. […] A 5 μl sample is then counted in duplicate using liquid scintillation counting (protocol 61 on Wallac Counter) and the concentration of the ligand is calculated (see example below). […] Using the measured concentration, the ^125I-OVTA is diluted to 0.3 nM in assay buffer. […]

Row | Ki [nM] | SMILES
1 | 9.4 | COc1cccc(C(C(N)=O)N(Cc2ccc(C)cc2)C(=O)c2c(C)cc(C)nc2N)c1 (single isomer, unassigned) [Example 258, (R or S)-2-Amino-N-[carbamoyl-[(3-methoxyphenyl)-methyl]-4,6-dimethyl-N-(4-methyl-benzyl)-nicotinamide]
2 | 9.4 | Cc1ccc(CN(C(=O)c2c(C)cc(C)nc2N)C(C(N)=O)c2ccc3c(c2)OCCO3)cc1 (centres unmarked) [Example 257, 2-Amino-N-[carbamoyl-(2,3-dihydro-benzo[1.4]dioxin-6-yl)-methyl]-4,6-dimethyl-N-(4-methyl-benzyl)-nicotinamide]
